# Measurements taken from patent publication US20160183526A1, “FUNGICIDAL COMPOSITIONS” (Dow AgroSciences LLC, priority 2014, published 2016).
# How the values were obtained:
# [1] = estimated from a survey of the literature; miscible means totally soluble in water in all amounts; cited from earlier work
# [2] = Solubility of a mixture of Compound A and prothioconazole in benzyl acetate/AMD810 blends at 10° C. (HPLC); type: physicochemical; details: both actives saturated
# Experimental: A study of the Compound A and prothioconazole solubility in blends of benzyl acetate/AMD810 was conducted. To each solvent blend both actives were added until each was saturated and the resulting mixtures were then stored at 10° C. until equilibrium was obtained. Aliquots of the supernatant layer were taken from each sample, filtered (0.45 μm mesh) and analyzed by HPLC to determine the solution concentration of each active in the blends.
# [3] = Approximate relative solubility of active ingredients in organic solvents at ambient temperature; type: physicochemical
# [4] = Solubility of Compound A and prothioconazole in benzyl acetate/AMD810/cyclohexanone blends at 10° C.; type: physicochemical; details: one week
# Experimental: A total of 20 g of each solvent blend was prepared per sample. For example, one of the blends (Blend 4) was prepared by combining cyclohexanone 0.2 (4 g), benzyl acetate 0.2 (4 g) and AMD810 0.6 (12 g). To Blend 4 were added amounts of Compound A and prothioconazole technical active ingredients to achieve saturation concentrations of each. The samples were then stored at 10° C. for one week and then were analysed for soluble active ingredient content.
compound,measurement,setting,value
CCOCCOCCO [Diethylene glycol monoethyl ether],Solubility of Solvent in Water,[1],Miscible
COC(=O)c1ccccc1O [Methyl salicylate],Solubility of Solvent in Water,[1],<5000 µg/mL
COC(=O)C(C)CCC(=O)N(C)C (stereo not shown) [Methyl-5-(Dimethylamino)-2-Methyl-5-Oxopentanoate],Solubility of Solvent in Water,[1],79000 µg/mL
"COC(=O)CCC(C)C(=O)OC (stereo not shown) [Pentanedioic acid, 2-methyl-1,5-dimethyl ester]",Solubility of Solvent in Water,[1],25000 µg/mL
O=C1CCCCC1 [Cyclohexanone],Solubility of Solvent in Water,[1],8600 to 25000 µg/mL
CC(=O)OCc1ccccc1 [Benzyl acetate],Solubility of Solvent in Water,[1],1000 to 3100 µg/mL
CC(C)OC(=O)c1ccccc1 [Isopropyl benzoate],Solubility of Solvent in Water,[1],640 µg/mL
"OC(Cc1ccccc1Cl)(Cn1nc[nH]c1=S)C1(Cl)CC1 (stereo not shown) [Prothioconazole, prothioconazole]",Prothioconazole Solubility at 10° C.,[2]; benzyl acetate 0 wt % in blend with AMD810,31.3 % w/w
same,Prothioconazole Solubility at 10° C.,[2]; benzyl acetate 20 wt % in blend with AMD810,32.3 % w/w
same,Prothioconazole Solubility at 10° C.,[2]; benzyl acetate 40 wt % in blend with AMD810,33.1 % w/w
same,Prothioconazole Solubility at 10° C.,[2]; benzyl acetate 60 wt % in blend with AMD810,32.1 % w/w
same,Prothioconazole Solubility at 10° C.,[2]; benzyl acetate 80 wt % in blend with AMD810,26.6 % w/w
same,Prothioconazole Solubility at 10° C.,[2]; benzyl acetate 100 wt % in blend with AMD810,16.2 % w/w
same,Relative Solubility of Prothioconazole,[3]; in 2-ethylhexanol,Very Low (<10)
same,Relative Solubility of Prothioconazole,[3]; in 2-ethylhexyl benzoate,Very Low (<10)
same,Relative Solubility of Prothioconazole,[3]; in 2-ethylhexyl lactate,Medium (>20 to 30)
same,Relative Solubility of Prothioconazole,[3]; in 2-heptanone,Low (10 to 20)
same,Relative Solubility of Prothioconazole,[3]; in Alkyl naphthalene mixture,Very Low (<10)
same,Relative Solubility of Prothioconazole,[3]; in Benzyl acetate,Low (10 to 20)
same,Relative Solubility of Prothioconazole,[3]; in Benzyl alcohol,Medium (>20 to 30)
same,Relative Solubility of Prothioconazole,[3]; in Butyl benzoate,Low (10 to 20)
same,Relative Solubility of Prothioconazole,[3]; in Butyl lactate,Low (10 to 20)
same,Relative Solubility of Prothioconazole,[3]; in Butylene carbonate,Very Low (<10)
same,Relative Solubility of Prothioconazole,[3]; in Cyclohexanone,High (>30)
same,Relative Solubility of Prothioconazole,[3]; in Di-n-butyl carbonate,Very Low (<10)
same,Relative Solubility of Prothioconazole,[3]; in Diethylene glycol monoethyl ether,High (>30)
same,Relative Solubility of Prothioconazole,[3]; in Ethyl Diglycol Acetate,Very Low (<10)
same,Relative Solubility of Prothioconazole,[3]; in Isoparaffin,Very Low (<10)
same,Relative Solubility of Prothioconazole,[3]; in Isopropyl benzoate,Very Low (<10)
same,Relative Solubility of Prothioconazole,[3]; in Methyl oleate,Very Low (<10)
same,Relative Solubility of Prothioconazole,[3]; in Methyl salicylate,Very Low (<10)
same,Relative Solubility of Prothioconazole,[3]; in Methyl-5-(Dimethylamino)-2-Methyl-5-Oxopentanoate,High (>30)
same,Relative Solubility of Prothioconazole,"[3]; in N,N dimethyl fatty acid amides",High (>30)
same,Relative Solubility of Prothioconazole,[3]; in N-formyl morpholine and propylene carbonate,Medium (>20 to 30)
same,Relative Solubility of Prothioconazole,"[3]; in Pentanedioic acid, 2-methyl-1, 5-dimethyl ester",Low (10 to 20)
same,Relative Solubility of Prothioconazole,[3]; in Polyethylene glycol,Medium (>20 to 30)
same,Relative Solubility of Prothioconazole,[3]; in Polypropylene glycol,Low (10 to 20)
same,Relative Solubility of Prothioconazole,[3]; in Propylene carbonate,Very Low (<10)
same,Relative Solubility of Prothioconazole,[3]; in Soybean oil,Very Low (<10)
same,Relative Solubility of Prothioconazole,[3]; in Sulfolane,Low (10 to 20)
same,Relative Solubility of Prothioconazole,[3]; in Tributoxyethyl phosphate,High (>30)
same,Relative Solubility of Prothioconazole,"[3]; in dimethyl esters of adipic, glutaric and succinic acids",Low (10 to 20)
same,Prothioconazole Solubility @ 10° C.,[4]; Blend 1: cyclohexanone 0/benzyl acetate 0/AMD810 1 (weight fraction),34.3 % w/w
same,Prothioconazole Solubility @ 10° C.,[4]; Blend 2: cyclohexanone 0/benzyl acetate 0.2/AMD810 0.8 (weight fraction),32.3 % w/w
same,Prothioconazole Solubility @ 10° C.,[4]; Blend 3: cyclohexanone 0.2/benzyl acetate 0/AMD810 0.8 (weight fraction),33.9 % w/w
same,Prothioconazole Solubility @ 10° C.,[4]; Blend 4: cyclohexanone 0.2/benzyl acetate 0.2/AMD810 0.6 (weight fraction),32.9 % w/w
same,Prothioconazole Solubility @ 10° C.,[4]; Blend 5: cyclohexanone 0/benzyl acetate 0.4/AMD810 0.6 (weight fraction),33.1 % w/w
same,Prothioconazole Solubility @ 10° C.,[4]; Blend 6: cyclohexanone 0.2/benzyl acetate 0.4/AMD810 0.4 (weight fraction),32.1 % w/w
same,Prothioconazole Solubility @ 10° C.,[4]; Blend 7: cyclohexanone 0/benzyl acetate 0.6/AMD810 0.4 (weight fraction),32.1 % w/w
same,Prothioconazole Solubility @ 10° C.,[4]; Blend 8: cyclohexanone 0/benzyl acetate 0.8/AMD810 0.2 (weight fraction),26.6 % w/w
same,Prothioconazole Solubility @ 10° C.,[4]; Blend 10: cyclohexanone 0.2/benzyl acetate 0.6/AMD810 0.2 (weight fraction),29.9 % w/w
same,Prothioconazole Solubility @ 10° C.,[4]; Blend 11: cyclohexanone 0/benzyl acetate 1/AMD810 0 (weight fraction),16.2 % w/w
same,Prothioconazole Solubility @ 10° C.,[4]; Blend 12: cyclohexanone 0.2/benzyl acetate 0.8/AMD810 0 (weight fraction),18.4 % w/w
CCCCOC(=O)C(C)O (stereo not shown) [Butyl lactate],Solubility of Solvent in Water,[1],42000 µg/mL
CCCCCCCC/C=C\CCCCCCCC(=O)OC [Methyl oleate],Solubility of Solvent in Water,[1],1.1 µg/mL
CC1COC(=O)O1 (stereo not shown) [Propylene carbonate],Solubility of Solvent in Water,[1],17500 µg/mL
CCCCOC(=O)OCCCC [Di-n-butyl carbonate],Solubility of Solvent in Water,[1],820 µg/mL
CCOCCOCCOC(C)=O [Ethyl Diglycol Acetate],Solubility of Solvent in Water,[1],Miscible
